In patent publication US11571421B2, “GABAA positive allosteric modulator compounds for treatment of itch and/or dermatitis” (NeuroCycle Therapeutics, Inc., priority 2018, dated 2023):
Several values for one entry are separate records, joined by “and”; a condition that tells them apart may be missing. Identical values can stand only once.

How the values were obtained:
[1] = system: Chloroquine (CQ)-Induced Itch Model in Male C57BL/6 Mice; assay: Chloroquine Induced Itch Model, PF-06372865 (Example 1); format: in vivo
Protocol: PF-06372865 was evaluated as an antipruritic and/or antidermatitis agent using a Chloroquine Induced Itch Model in male C57BL/6 mice.
Male C57BL/6 Mice (8-10 weeks) were used in the study. Animals were procured from CRL, Hylasco (CPSCEA registered animal supplier).
Mice were housed one per cage and maintained at controlled environmental conditions with 12-h light and dark cycles. The temperature and humidity of the room were maintained between 22±3° C. and 55±5%, respectively. The maximum and minimum temperature and relative humidity in the experimental rooms were recorded once daily. […]
PF-06372865 was weighed into a clean mortar. Liquefied Solutol (i.e., Polyoxyl 15 Hydroxystearate) was added drop wise and triturated using a pestle for 2-3 minutes, then Glycerol formal was added and mixed in same fashion. The volume was made up by slowly adding the required volume of water. The resulting mixture was mixed well using mild vortexing to provide a homogeneous suspension. (Details in below chart)
27 mg of chloroquine phosphate was weighed in a clean glass container. 6 mL PBS was added, and the resulting mixture was mixed well using mild vortexing to form the desired strength solution.
The right-side cheek area of all the animals was shaved with animal clippers 1 day prior to the experiment. Animals were randomized into different treatment groups (n=9/group) based on body weight to avoid variability in weights across groups. NCT10004 Phosphate and PF-06372865 formulations and chloroquine phosphate solution were prepared on the day of the experiment.
Animals were dosed per oral with respective treatment group using a dose volume of 10 ml/kg. Times of dosing were recorded. Immediately after compound treatment, animals were kept in an empty transparent chamber (23 cm length×17 cm width) for acclimatization and observation.
Ninety (90) minutes post compound dosing, 50-μl of chloroquine phosphate solution (a 200-μg dose) was injected intracutaneously into the animal's right cheek. Animals were returned to the same chamber for observation. Animals were observed by an observer blind to the treatment group for a period of 30 minutes post chloroquine injection. Total number of bouts of scratching directed at the ipsilateral cheek were recorded for 30 minutes.

[2] = system: Non-Histamine-Induced Itch Model in Male C57BL/6 Mice; assay: Non-Histamine (chloroquine)-Induced Itch Model (Example 5); format: in vivo; conditions: oral gavage 90 min before chloroquine; 1, 3, 10, 30 and 100 mg/kg
Protocol: The mice are dosed with PF-06372865 by oral gavage ninety (90) minutes before chloroquine injection. Doses of PF-06372865 are 1, 3, 10, 30 and 100 mg/kg.

[3] = 10 mg/kg PO, individual animals
[4] = 30 mg/kg PO, individual animals

CCn1cnc2c(-c3ccc(F)c(-c4ccc(S(=O)(=O)CC)cc4OC)c3)cnnc21 [PF-06372865]
Scratching bouts (Nos.) in 30 min, 0-5 min ([1]; 3 mg/kg PO, individual animals): 16 Nos. and 0 Nos. (4×) and 19 Nos. and 1 Nos. and 3 Nos. and 5 Nos.
Scratching bouts (Nos.) in 30 min, 5-10 min ([1]; 3 mg/kg PO, individual animals): 0 Nos. (7×) and 33 Nos. and 2 Nos.
Scratching bouts (Nos.) in 30 min, 10-15 min ([1]; 3 mg/kg PO, individual animals): 44 Nos. and 4 Nos. and 0 Nos. (4×) and 10 Nos. and 16 Nos. and 29 Nos.
Scratching bouts (Nos.) in 30 min, 15-20 min ([1]; 3 mg/kg PO, individual animals): 17 Nos. and 14 Nos. and 33 Nos. and 0 Nos. (4×) and 3 Nos. and 22 Nos.
Scratching bouts (Nos.) in 30 min, 20-25 min ([1]; 3 mg/kg PO, individual animals): 13 Nos. and 0 Nos. (5×) and 14 Nos. and 3 Nos. and 9 Nos.
Scratching bouts (Nos.) in 30 min, 25-30 min ([1]; 3 mg/kg PO, individual animals): 9 Nos. and 0 Nos. (5×) and 3 Nos. and 15 Nos. and 4 Nos.
Total Scratching bouts ([1]; 3 mg/kg PO, individual animals): 99 Nos./30 min and 18 Nos./30 min and 66 Nos./30 min and 29 Nos./30 min and 24 Nos./30 min and 59 Nos./30 min and 3 Nos./30 min and 12 Nos./30 min and 31 Nos./30 min
Scratching bouts (Nos.) in 30 min, 0-5 min ([1]; 10 mg/kg PO, MEAN, N=9): 0.00 Nos.
Scratching bouts (Nos.) in 30 min, 5-10 min ([1]; 10 mg/kg PO, MEAN, N=9): 0.00 Nos.
Scratching bouts (Nos.) in 30 min, 10-15 min ([1]; 10 mg/kg PO, MEAN, N=9): 7.33 Nos.
Scratching bouts (Nos.) in 30 min, 15-20 min ([1]; 10 mg/kg PO, MEAN, N=9): 4.11 Nos.
Scratching bouts (Nos.) in 30 min, 20-25 min ([1]; 10 mg/kg PO, MEAN, N=9): 2.78 Nos.
Scratching bouts (Nos.) in 30 min, 25-30 min ([1]; 10 mg/kg PO, MEAN, N=9): 1.11 Nos.
Total Scratching bouts ([1]; 10 mg/kg PO, MEAN, N=9): 15.33 Nos./30 min
Scratching bouts (Nos.) in 30 min, 0-5 min [1, 3]: 0 Nos.
Scratching bouts (Nos.) in 30 min, 5-10 min [1, 3]: 0 Nos.
Scratching bouts (Nos.) in 30 min, 10-15 min [1, 3]: 0 Nos. (7×) and 33 Nos. (2×)
Scratching bouts (Nos.) in 30 min, 15-20 min [1, 3]: 0 Nos. (6×) and 8 Nos. and 3 Nos. and 26 Nos.
Scratching bouts (Nos.) in 30 min, 20-25 min [1, 3]: 0 Nos. (6×) and 12 Nos. and 9 Nos. and 4 Nos.
Scratching bouts (Nos.) in 30 min, 25-30 min [1, 3]: 2 Nos. (2×) and 0 Nos. (6×) and 6 Nos.
Total Scratching bouts [1, 3]: 2 Nos./30 min and 14 Nos./30 min and 41 Nos./30 min and 33 Nos./30 min and 0 Nos./30 min (2×) and 15 Nos./30 min and 3 Nos./30 min and 30 Nos./30 min
Scratching bouts (Nos.) in 30 min, 0-5 min ([1]; 30 mg/kg PO, MEAN, N=9): 0.00 Nos.
Scratching bouts (Nos.) in 30 min, 5-10 min ([1]; 30 mg/kg PO, MEAN, N=9): 0.00 Nos.
Scratching bouts (Nos.) in 30 min, 10-15 min ([1]; 30 mg/kg PO, MEAN, N=9): 0.00 Nos.
Scratching bouts (Nos.) in 30 min, 15-20 min ([1]; 30 mg/kg PO, MEAN, N=9): 0.00 Nos.
Scratching bouts (Nos.) in 30 min, 20-25 min ([1]; 30 mg/kg PO, MEAN, N=9): 0.00 Nos.
Scratching bouts (Nos.) in 30 min, 25-30 min ([1]; 30 mg/kg PO, MEAN, N=9): 0.00 Nos.
Total Scratching bouts ([1]; 30 mg/kg PO, MEAN, N=9): 0.00 Nos./30 min
Scratching bouts (Nos.) in 30 min, 0-5 min [1, 4]: 0 Nos.
Scratching bouts (Nos.) in 30 min, 5-10 min [1, 4]: 0 Nos.
Scratching bouts (Nos.) in 30 min, 10-15 min [1, 4]: 0 Nos.
Scratching bouts (Nos.) in 30 min, 15-20 min [1, 4]: 0 Nos.
Scratching bouts (Nos.) in 30 min, 20-25 min [1, 4]: 0 Nos.
Scratching bouts (Nos.) in 30 min, 25-30 min [1, 4]: 0 Nos.
Total Scratching bouts [1, 4]: 0 Nos./30 min
scratching bouts compared to vehicle treatment, significance ([1]; at 0.3, 1, 3, 10 and 30 mg/kg doses): Statistically significant decrease
total number of scratching bouts, dose response ([1]; quantified for 30 minutes post CQ injection, 0.3-30 mg/kg PO): dose dependent decrease
scratching bouts, chloroquine-induced itch [2]: dose-dependent reduction of scratching bouts
